These results are taken from patent US7091202B2, “4-arylspirocycloalkyl-2-aminopyrimidine carboxamide KCNQ potassium channel modulators” (Bristol-Myers Squibb Company, priority 2004, dated 2006).

The target in the assay is T1, hQ23 (HEK-293 cell line stably transfected with one of the members of the KCNQ family) (Homo sapiens, UniProt O43525+O43526).
T1 construct: expressed in transfected cells; host or cells: HEK-293, stably transfected
As to the kind of experiment: Thallium flux assay for KCNQ channel blockers (FLIPR, BTC dye). The format is cell-based. The following applies: hQ23 cells, thallium flux. The method, boiled down: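 FLIPR thallium flux readout (BTC dye, 2 μM AM ester) in stably transfected KCNQ HEK-293 cells, chloride-free HEPES buffer pH 7.3, Tl2SO4 stimulus. IC50s were fitted with a single-site logistic equation across 10 points at 1:3 dilutions, defined as 50% of positive-control block; minimal active concentration meant signal ≥4 SD over DMSO controls.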

Structures are written as SMILES.

T1 sequence (O43526 whole entry): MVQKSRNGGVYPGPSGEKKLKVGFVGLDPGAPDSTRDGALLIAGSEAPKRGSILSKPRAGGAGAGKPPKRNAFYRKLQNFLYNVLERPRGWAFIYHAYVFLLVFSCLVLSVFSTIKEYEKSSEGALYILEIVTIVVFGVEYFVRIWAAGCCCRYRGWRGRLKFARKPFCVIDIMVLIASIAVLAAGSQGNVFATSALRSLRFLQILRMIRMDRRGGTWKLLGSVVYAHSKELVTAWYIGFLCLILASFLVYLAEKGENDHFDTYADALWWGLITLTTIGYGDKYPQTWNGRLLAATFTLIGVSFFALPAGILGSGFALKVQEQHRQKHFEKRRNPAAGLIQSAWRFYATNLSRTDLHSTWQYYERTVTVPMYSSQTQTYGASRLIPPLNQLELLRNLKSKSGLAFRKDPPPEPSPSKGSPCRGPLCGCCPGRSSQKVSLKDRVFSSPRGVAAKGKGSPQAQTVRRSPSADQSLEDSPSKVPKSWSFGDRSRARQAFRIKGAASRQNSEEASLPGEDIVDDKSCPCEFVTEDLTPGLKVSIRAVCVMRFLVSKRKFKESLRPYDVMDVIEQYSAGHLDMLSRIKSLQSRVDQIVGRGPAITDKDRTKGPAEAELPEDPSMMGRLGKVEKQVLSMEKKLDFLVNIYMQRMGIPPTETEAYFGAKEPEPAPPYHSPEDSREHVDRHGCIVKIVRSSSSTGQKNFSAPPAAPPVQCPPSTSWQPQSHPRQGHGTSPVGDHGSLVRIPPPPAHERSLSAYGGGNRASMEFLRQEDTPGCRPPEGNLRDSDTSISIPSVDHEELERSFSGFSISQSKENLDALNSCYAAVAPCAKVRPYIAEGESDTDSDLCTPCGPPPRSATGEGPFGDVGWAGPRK
T1 sequence (O43525 whole entry): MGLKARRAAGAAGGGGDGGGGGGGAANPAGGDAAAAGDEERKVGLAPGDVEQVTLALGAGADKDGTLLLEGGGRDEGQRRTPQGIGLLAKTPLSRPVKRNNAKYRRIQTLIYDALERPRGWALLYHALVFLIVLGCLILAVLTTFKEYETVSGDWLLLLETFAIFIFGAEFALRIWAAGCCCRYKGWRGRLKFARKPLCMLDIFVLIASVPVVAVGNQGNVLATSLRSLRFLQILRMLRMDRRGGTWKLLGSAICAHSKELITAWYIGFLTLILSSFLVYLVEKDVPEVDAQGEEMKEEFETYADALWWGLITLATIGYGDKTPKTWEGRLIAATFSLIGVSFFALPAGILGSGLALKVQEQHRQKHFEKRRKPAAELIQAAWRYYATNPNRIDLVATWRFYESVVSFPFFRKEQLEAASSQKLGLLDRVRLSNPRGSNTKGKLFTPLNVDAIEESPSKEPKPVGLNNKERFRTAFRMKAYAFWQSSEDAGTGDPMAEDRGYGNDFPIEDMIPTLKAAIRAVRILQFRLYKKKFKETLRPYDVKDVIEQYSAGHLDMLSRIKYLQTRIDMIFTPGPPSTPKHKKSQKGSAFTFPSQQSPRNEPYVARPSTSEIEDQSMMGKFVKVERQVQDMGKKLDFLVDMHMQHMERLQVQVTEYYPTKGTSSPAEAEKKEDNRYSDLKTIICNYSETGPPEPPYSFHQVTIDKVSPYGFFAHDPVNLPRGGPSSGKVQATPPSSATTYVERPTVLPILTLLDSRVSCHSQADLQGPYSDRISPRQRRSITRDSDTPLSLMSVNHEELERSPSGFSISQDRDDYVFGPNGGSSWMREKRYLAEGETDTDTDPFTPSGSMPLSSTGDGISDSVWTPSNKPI

Take `O=C(NCc1ccc(Cl)cc1Cl)c1cnc(NC2CCCC2)nc1C1(c2ccc(Cl)cc2)CCCC1` [Example 185, 5-pyrimidinecarboxamide, 4-[1-(4-chlorophenyl)cyclopentyl]-2-(cyclopentylamino)-N-[(2,4-dichlorophenyl)methyl]-]: the midpoint of the response, the EC50, lay at 10 nM. Compound `CC1CCC(Nc2ncc(C(=O)NCc3ccc(F)cc3F)c(C3(c4ccc(Cl)cc4)CCCC3)n2)CC1` (stereo not drawn) [Example 186, 5-pyrimidinecarboxamide, 4-[1-(4-chlorophenyl)cyclopentyl]-N-[(2,4-difluorophenyl)methyl]-2-[(4-methylcyclohexyl)amino]-] returned an EC50 of 128 nM.

Consider `CC1CCCN(c2ncc(C(=O)NCc3ccc(F)cc3F)c(C3(c4ccc(Cl)cc4)CCCC3)n2)C1` (stereo not drawn) [Example 187, 5-pyrimidinecarboxamide, 4-[1-(4-chlorophenyl)cyclopentyl]-N-[(2,4-difluorophenyl)methyl]-2-(3-methyl-1-piperidinyl)-], for which the EC50 was 95 nM. The EC50 values of the last two compounds are within 1.5-fold of each other. With `CC1CCN(c2ncc(C(=O)NCc3ccc(F)cc3F)c(C3(c4ccc(Cl)cc4)CCCC3)n2)CC1` [Example 188, 5-pyrimidinecarboxamide, 4-[1-(4-chlorophenyl)cyclopentyl]-N-[(2,4-difluorophenyl)methyl]-2-(4-methyl-1-piperidinyl)-] the figure was 16 nM; with `O=C(NCc1ccc(F)cc1F)c1cnc(NC2CCCC2)nc1C1(c2ccc(Cl)cc2)CCCC1` [Example 189, 5-pyrimidinecarboxamide, 4-[1-(4-chlorophenyl)cyclopentyl]-2-(cyclopentylamino)-N-[(2,4-difluorophenyl)methyl]-], 340 nM; with `CC1CCC(Nc2ncc(C(=O)NCc3cc(F)cc(C(F)(F)F)c3)c(C3(c4ccc(Cl)cc4)CCCC3)n2)CC1` (stereo not drawn) [Example 190, 5-pyrimidinecarboxamide, 4-[1-(4-chlorophenyl)cyclopentyl]-N-[[3-fluoro-5-(trifluoromethyl)phenyl]methyl]-2-[(4-methylcyclohexyl)amino]-], 163 nM.

Consider `O=C(NCc1cc(F)cc(C(F)(F)F)c1)c1cnc(N2CCCC2)nc1C1(c2ccc(Cl)cc2)CCCC1` [Example 191, 5-pyrimidinecarboxamide, 4-[1-(4-chlorophenyl)cyclopentyl]-N-[[3-fluoro-5-(trifluoromethyl)phenyl]methyl]-2-(1-pyrrolidinyl)-], for which the EC50 turned out to be 32 nM. In turn, `CC1CCCN(c2ncc(C(=O)NCc3cc(F)cc(C(F)(F)F)c3)c(C3(c4ccc(Cl)cc4)CCCC3)n2)C1` (stereo not drawn) [Example 192, 5-pyrimidinecarboxamide, 4-[1-(4-chlorophenyl)cyclopentyl]-N-[[3-fluoro-5-(trifluoromethyl)phenyl]methyl]-2-(3-methyl-1-piperidinyl)-] displayed an EC50 of 10 nM.

`CC1CCN(c2ncc(C(=O)NCc3cc(F)cc(C(F)(F)F)c3)c(C3(c4ccc(Cl)cc4)CCCC3)n2)CC1` [Example 193, 5-pyrimidinecarboxamide, 4-[1-(4-chlorophenyl)cyclopentyl]-N-[[3-fluoro-5-(trifluoromethyl)phenyl]methyl]-2-(4-methyl-1-piperidinyl)-] yielded an EC50 of 12 nM. The value for `CN1CCC(N(C)c2ncc(C(=O)NCc3cc(F)cc(C(F)(F)F)c3)c(C3(c4ccc(Cl)cc4)CCCC3)n2)CC1` [Example 194, 5-pyrimidinecarboxamide, 4-[1-(4-chlorophenyl)cyclopentyl]-N-[[3-fluoro-5-(trifluoromethyl)phenyl]methyl]-2-[methyl(1-methyl-4-piperidinyl)amino]-] was 130 nM; that for `CN(C)CCNc1ncc(C(=O)NCc2cc(F)cc(C(F)(F)F)c2)c(C2(c3ccc(Cl)cc3)CCCC2)n1` [Example 195, 5-pyrimidinecarboxamide, 4-[1-(4-chlorophenyl)cyclopentyl]-2-[[2-(dimethylamino)ethyl]amino]-N-[[3-fluoro-5-(trifluoromethyl)phenyl]methyl]-] was 634 nM; that for `O=C(NCc1cc(F)cc(C(F)(F)F)c1)c1cnc(NC2CCCC2)nc1C1(c2ccc(Cl)cc2)CCCC1` [Example 196, 5-pyrimidinecarboxamide, 4-[1-(4-chlorophenyl)cyclopentyl]-2-(cyclopentylamino)-N-[[3-fluoro-5-(trifluoromethyl)phenyl]methyl]-] was 91 nM. Regarding `CC1CCC(Nc2ncc(C(=O)NC(C)c3ccc(F)cc3)c(C3(c4ccc(Cl)cc4)CCCC3)n2)CC1` (stereo not drawn) [Example 197, 5-pyrimidinecarboxamide, 4-[1-(4-chlorophenyl)cyclopentyl]-N-[1-(4-fluorophenyl)ethyl]-2-[(4-methylcyclohexyl)amino]-], the EC50 stood at 233 nM.

The compound `CC1CCCN(c2ncc(C(=O)NC(C)c3ccc(F)cc3)c(C3(c4ccc(Cl)cc4)CCCC3)n2)C1` (stereo not drawn) [Example 198, 5-pyrimidinecarboxamide, 4-[1-(4-chlorophenyl)cyclopentyl]-N-[1-(4-fluorophenyl)ethyl]-2-(3-methyl-1-piperidinyl)-] returned an EC50 of 124 nM. Compound `CC1CCN(c2ncc(C(=O)NC(C)c3ccc(F)cc3)c(C3(c4ccc(Cl)cc4)CCCC3)n2)CC1` (stereo not drawn) [Example 199, 5-pyrimidinecarboxamide, 4-[1-(4-chlorophenyl)cyclopentyl]-N-[1-(4-fluorophenyl)ethyl]-2-(4-methyl-1-piperidinyl)-] returned a concentration giving a half-maximal response (EC50) of 61 nM. `CCC(C)Nc1ncc(C(=O)NC(C)c2ccc(F)cc2)c(C2(c3ccc(Cl)cc3)CCCC2)n1` (stereo not drawn) [Example 200, 5-pyrimidinecarboxamide, 4-[1-(4-chlorophenyl)cyclopentyl]-N-[1-(4-fluorophenyl)ethyl]-2-[(1-methylpropyl)amino]-] returned an EC50 of 911 nM. `CC(NC(=O)c1cnc(NC2CCCC2)nc1C1(c2ccc(Cl)cc2)CCCC1)c1ccc(F)cc1` (stereo not drawn) [Example 201, 5-pyrimidinecarboxamide, 4-[1-(4-chlorophenyl)cyclopentyl]-2-(cyclopentylamino)-N-[1-(4-fluorophenyl)ethyl]-] displayed an EC50 of 592 nM. Compared with the last compound, the EC50 is about 1.5-fold lower. The value for `CN1CCN(c2ncc(C(=O)NCc3ccc(C(F)(F)F)cc3)c(C3(c4ccc(Cl)cc4)CCCC3)n2)CC1` [Example 202, 5-pyrimidinecarboxamide, 4-[1-(4-chlorophenyl)cyclopentyl]-2-(4-methyl-1-piperazinyl)-N-[[4-(trifluoromethyl)phenyl]methyl]-] was 879 nM; that for `CC1CCN(c2ncc(C(=O)NCc3ccc(C(F)(F)F)cc3)c(C3(c4ccc(Cl)cc4)CCCC3)n2)CC1` [Example 203, 5-pyrimidinecarboxamide, 4-[1-(4-chlorophenyl)cyclopentyl]-2-(4-methyl-1-piperidinyl)-N-[[4-(trifluoromethyl)phenyl]methyl]-] was 32 nM; that for `CN1CCC(N(C)c2ncc(C(=O)NCc3ccc(C(F)(F)F)cc3)c(C3(c4ccc(Cl)cc4)CCCC3)n2)CC1` [Example 204, 5-pyrimidinecarboxamide, 4-[1-(4-chlorophenyl)cyclopentyl]-2-[methyl(1-methyl-4-piperidinyl)amino]-N-[[4-(trifluoromethyl)phenyl]methyl]-] was 400 nM. `CC1CCCN(c2ncc(C(=O)N(C)Cc3ccccc3)c(C3(c4ccc(F)cc4)CCCC3)n2)C1` (stereo not drawn) [Example 205, 5-pyrimidinecarboxamide, 4-[1-(4-fluorophenyl)cyclopentyl]-N-methyl-2-(3-methyl-1-piperidinyl)-N-(phenylmethyl)-]: the EC50 worked out at 116 nM.

Usually EC50 stands for the concentration giving half of the maximal effect. A lower EC50 goes with higher potency in that assay.
